Measurements from ChEMBL document CHEMBL1201862, “PubChem BioAssay data set” (2004).
The source made the active and inactive calls.

Key:
Assay type in all cases: functional
[1] = biological target: T1, Replicative DNA helicase DnaB (Mycobacterium tuberculosis, UniProt P9WMR3); experiment: DnaB intein splicing inhibitors, dose response, biochemical, cell-free fluorescence (AID 449749)
T1 sequence (P9WMR3 whole entry): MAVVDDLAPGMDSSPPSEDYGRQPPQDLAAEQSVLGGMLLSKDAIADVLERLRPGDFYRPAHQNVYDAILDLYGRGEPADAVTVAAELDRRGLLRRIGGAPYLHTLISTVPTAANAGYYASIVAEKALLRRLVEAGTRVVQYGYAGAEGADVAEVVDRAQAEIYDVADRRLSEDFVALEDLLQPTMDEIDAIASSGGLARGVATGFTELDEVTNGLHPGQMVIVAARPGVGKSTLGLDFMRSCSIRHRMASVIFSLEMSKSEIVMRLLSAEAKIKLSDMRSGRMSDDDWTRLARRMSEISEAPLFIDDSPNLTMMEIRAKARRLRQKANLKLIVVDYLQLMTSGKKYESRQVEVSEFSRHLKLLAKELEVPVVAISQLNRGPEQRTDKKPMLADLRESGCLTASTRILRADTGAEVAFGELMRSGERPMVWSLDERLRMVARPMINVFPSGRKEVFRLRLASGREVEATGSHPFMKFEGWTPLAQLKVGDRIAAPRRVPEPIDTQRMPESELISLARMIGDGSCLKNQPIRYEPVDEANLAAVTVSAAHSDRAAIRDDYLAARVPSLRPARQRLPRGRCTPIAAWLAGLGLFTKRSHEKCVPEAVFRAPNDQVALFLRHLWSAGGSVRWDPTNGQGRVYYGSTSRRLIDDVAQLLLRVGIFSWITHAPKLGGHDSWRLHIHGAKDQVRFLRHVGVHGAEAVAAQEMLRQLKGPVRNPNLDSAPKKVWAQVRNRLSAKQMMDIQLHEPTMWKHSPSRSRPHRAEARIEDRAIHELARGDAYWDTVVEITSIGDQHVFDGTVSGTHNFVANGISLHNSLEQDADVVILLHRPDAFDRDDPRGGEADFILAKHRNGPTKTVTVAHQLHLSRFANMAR

[2] = biological target: T2, Apoptotic protease-activating factor 1 (Homo sapiens, UniProt O14727)
T2 sequence (O14727 whole entry): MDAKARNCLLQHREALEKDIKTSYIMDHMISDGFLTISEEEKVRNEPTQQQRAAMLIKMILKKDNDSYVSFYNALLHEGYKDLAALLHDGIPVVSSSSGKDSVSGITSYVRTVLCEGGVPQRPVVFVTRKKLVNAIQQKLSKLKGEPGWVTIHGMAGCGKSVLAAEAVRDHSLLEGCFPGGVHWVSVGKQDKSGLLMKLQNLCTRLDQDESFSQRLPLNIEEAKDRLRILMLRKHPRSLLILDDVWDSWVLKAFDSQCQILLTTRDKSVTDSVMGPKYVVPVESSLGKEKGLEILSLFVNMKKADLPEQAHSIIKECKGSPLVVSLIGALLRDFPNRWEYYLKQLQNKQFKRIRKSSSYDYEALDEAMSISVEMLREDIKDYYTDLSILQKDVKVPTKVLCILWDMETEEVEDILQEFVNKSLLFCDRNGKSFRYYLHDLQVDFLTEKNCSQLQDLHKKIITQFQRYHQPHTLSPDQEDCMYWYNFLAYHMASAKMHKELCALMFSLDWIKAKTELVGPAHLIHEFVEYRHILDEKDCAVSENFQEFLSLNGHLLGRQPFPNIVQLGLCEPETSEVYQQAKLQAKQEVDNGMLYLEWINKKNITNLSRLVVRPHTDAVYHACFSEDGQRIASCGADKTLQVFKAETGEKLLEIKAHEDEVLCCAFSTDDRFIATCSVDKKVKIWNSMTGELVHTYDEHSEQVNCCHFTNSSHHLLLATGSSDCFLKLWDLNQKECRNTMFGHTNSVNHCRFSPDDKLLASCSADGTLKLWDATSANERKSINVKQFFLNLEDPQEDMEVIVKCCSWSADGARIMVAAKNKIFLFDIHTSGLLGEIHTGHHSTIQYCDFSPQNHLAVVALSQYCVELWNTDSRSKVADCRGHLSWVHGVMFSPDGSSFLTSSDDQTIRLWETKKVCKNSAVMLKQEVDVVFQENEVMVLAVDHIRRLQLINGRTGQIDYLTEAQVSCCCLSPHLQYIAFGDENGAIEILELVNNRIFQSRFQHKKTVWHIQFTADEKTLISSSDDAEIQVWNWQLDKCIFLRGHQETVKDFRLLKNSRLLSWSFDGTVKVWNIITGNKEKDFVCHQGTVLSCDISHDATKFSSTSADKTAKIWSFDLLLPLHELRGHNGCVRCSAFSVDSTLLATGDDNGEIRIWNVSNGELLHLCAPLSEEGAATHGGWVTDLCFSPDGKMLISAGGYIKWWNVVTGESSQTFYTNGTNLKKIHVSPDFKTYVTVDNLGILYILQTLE

Protein RecA = biological target: T3, Protein RecA (Mycobacterium tuberculosis, UniProt P9WHJ3); experiment: Fluorescence Cell-Free Homogeneous Dose Retest to Identify Inhibitors of RecA-Intein Splicing Activity. [Related pubchem assays (depositor defined):AID2097, AID2223, AID489010, AID492950]
T3 sequence (P9WHJ3 whole entry): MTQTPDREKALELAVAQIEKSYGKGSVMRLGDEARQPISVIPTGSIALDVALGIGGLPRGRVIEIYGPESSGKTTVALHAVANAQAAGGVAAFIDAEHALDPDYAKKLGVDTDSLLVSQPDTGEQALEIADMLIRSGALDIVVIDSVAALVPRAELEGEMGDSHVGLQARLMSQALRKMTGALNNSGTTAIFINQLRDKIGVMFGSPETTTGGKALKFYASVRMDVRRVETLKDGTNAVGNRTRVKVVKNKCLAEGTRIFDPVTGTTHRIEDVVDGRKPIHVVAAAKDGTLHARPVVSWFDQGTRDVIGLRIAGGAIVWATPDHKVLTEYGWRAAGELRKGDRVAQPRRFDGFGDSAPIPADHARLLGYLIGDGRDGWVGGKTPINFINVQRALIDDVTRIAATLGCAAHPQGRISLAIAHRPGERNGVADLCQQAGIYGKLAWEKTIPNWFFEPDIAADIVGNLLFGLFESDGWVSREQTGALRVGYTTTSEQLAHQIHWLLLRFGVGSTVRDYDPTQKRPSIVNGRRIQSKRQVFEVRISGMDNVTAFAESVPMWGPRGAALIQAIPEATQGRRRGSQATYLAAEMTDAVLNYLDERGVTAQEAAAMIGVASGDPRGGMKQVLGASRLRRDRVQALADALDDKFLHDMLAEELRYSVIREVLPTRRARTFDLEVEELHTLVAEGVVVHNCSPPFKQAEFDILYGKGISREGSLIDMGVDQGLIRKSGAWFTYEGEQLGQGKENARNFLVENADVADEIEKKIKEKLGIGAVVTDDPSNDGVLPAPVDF

For `COc1cc2c(cc1OC)-c1c(OC)c(OC)cc3c1[C@H](C2)N(C)CC3`, the AC50 [1] was 3.6 µM (active), the IC50 [2] was 2.82 µM (active) and the EC50 (Protein RecA) was 4.91 µM (active).
With `O=C1C(Cl)=C(N2CCC(C(=O)O)CC2)C(=O)c2ccccc21` the AC50 [1] was 19.3 µM (active), the IC50 [2] was 13.4 µM (active) and the EC50 (Protein RecA) was 5.78 µM (active).
In the case of `COC1=C(c2ccccc2)C(=O)c2ccccc2C1=O`, the AC50 [1] is reported as 13.4 µM (active) and the EC50 (Protein RecA) is reported as 13.3 µM (active).
